In patent publication US20240299542A1, “NATURAL KILLER CELLS ENGINEERED TO REDUCE OR ELIMINATE CBL-B AND USES THEREOF” (City of Hope, priority 2021, published 2024):

Assays:
Mertk = Mertk phosphorylation by immunoblot in siRNA-transduced NK cells; format: cell-based, human; conditions: vs Scr siRNA
Description: FIGS. 5A-5D depict the results of a study showing that Cbl-b interacts with and regulates phosphorylation of Mertk in primary human NK cells. (FIG. 5A) Representative intracellular flow cytometric analysis of the TAM family receptors expression in primary human NK cells. Summarized data are shown from 6 donors. IgG1 is the isotype for Tyro3 and Axl, while IgG2 for Mertk. (FIG. 5B) The level of Mertk phosphorylation and Cbl-b in Cbl-b siRNA- or Scr siRNA-transduced primary human NK was measured by immunoblot analysis. Data presented are representative of five independent experiments. […] Data presented are representative of 4 donors performed in a similar fashion and are summarized in the panel below the representative flow dot plots. […]
FIGS. 10A-10B depict immunoblotting analysis of the phosphorylation level of Mertk (p-Mertk). (FIG. 10A) The level of Mertk phosphorylation and Cbl-b in Cbl-b siRNA- or Scr siRNA-transduced primary human NK cells was measured by immunoblot analysis. […] (FIG. 10B) The level of total Mertk expression in Cbl-b siRNA- or Scr siRNA-transduced primary human NK was measured by immunoblot analysis.
Immunoblotting. […] Densitometric analysis was performed to quantify intensity of gel bands with Image J (National Institutes of Health). […]

Cbl-b = assay: siRNA knockdown efficiency by immunoblot in primary human NK cells; format: cell-based; conditions: 48 h transduction, vs Scr siRNA
Description: (§1) FIG. 8A Primary human NK cells were transduced with Cbl-b siRNA or a scrambled siRNA (Scr siRNA) for 48 h, directly followed by immunoblot analysis to determine the efficiency of siRNA (n=3 donors). […] FIG. 8B qRT-PCR was performed to quantify the level of perform mRNA (n=7 donors) in Cbl-b siRNA- and Scr siRNA-transduced primary human cells incubated without or with IL-15 (10 ng/ml) for 16 h. FIG. 8C The perform protein level in Cbl-b siRNA- and Scr siRNA-transduced primary human NK cells incubated 24 without or with IL-15 (10 ng/ml) for 24 h was measured by immunoblot analysis. The data are representative of four experiments and are summarized in the right panel. Scr, scrambled; *P<0.05, **P<0.01; ns, not significant. Data are presented as mean±SEM.
Transient transfection. Primary human NK cells were transfected with Accell siRNA by using the Accell delivery media from Dharmacon. Gene knockdown efficiency of siRNA was determined with immunoblotting analysis.
Immunoblotting. […] Densitometric analysis was performed to quantify intensity of gel bands with Image J (National Institutes of Health).
(§2) Both groups were next incubated without or with IL-15 and co-cultured with ^51Cr labeled MV4-11, Molm-13, or EOL-1 leukemia cell lines, followed by assessment of specific lysis measured after 4 h of co-culture.

perform = assay: Perforin protein by immunoblot in siRNA-transduced NK cells; format: cell-based, human; conditions: with IL-15 (10 ng/ml) 24 h, vs Scr siRNA
Description: as §1
Immunoblotting. Cells were harvested and suspended in RIPA lysis buffer (Thermo Fisher Scientific) on ice for 20 minutes. Equal amount of protein was resolved by 5-15% Criterion TGX gel (Bio-Rad) and then transferred onto a Nitrocellulose (NC) or PVDF membrane (Thermo Fisher Scientific). […] Densitometric analysis was performed to quantify intensity of gel bands with Image J (National Institutes of Health).
as §2

granzyme B = assay: Granzyme B (GZMB) mRNA by qRT-PCR in siRNA-transduced NK cells; format: cell-based, human; conditions: without or with IL-15 (10 ng/ml) 16 h, vs Scr siRNA
Description: FIGS. 3A-3E depict the results of a study showing that downregulation of Cbl-b enhances the cytotoxicity of primary human NK cells. (FIGS. 3A and 3B) Primary human NK cells transduced with Cbl-b siRNA or Scr siRNA for 24 h were stimulated without (FIG. 3A) or with (FIG. 3B) a low concentration of IL-15 (2 ng/ml) for 16 h, then co-cultured with ^51Cr labeled Molm-13, MV4-11 or EOL-1 leukemia cell lines for 4 h, followed by quantification of specific tumor cell lysis. Each experiment was repeated with 6 different normal donors. (FIG. 3C) qRT-PCR was performed to quantify the granzyme B (GZMB) mRNA levels (n=8 donors) in siRNA- and Scr siRNA-transduced primary human NK cells incubated without or with IL-15 (10 ng/ml) for 16 h. (FIG. 3D) The concentration of the granzyme B protein in the supernatants of Cbl-b siRNA- and Scr siRNA-transduced primary human NK cells incubated without (688.1 pg/ml vs 525.4 pg/ml; P=0.0232) or with IL-15 (10 ng/ml) for 24 h (8789 pg/ml vs 3397 pg/ml; P=0.0232) was measured by ELISA (n=8 donors). (FIG. 3E) The level of granzyme B protein in Cbl-b siRNA- and Scr siRNA-transduced primary human NK cells incubated without or with IL-15 (10 ng/ml) for 24 h was measured by immunoblot analysis. The data are representative of three experiments. Scr-scrambled; *P<0.05, **P<0.01, ***P<0.001, ****P<0.0001 by One-way or Two-way ANOVA; ns, not significant. […]

Cbl-b siRNA: Cbl-b-specific Accell siRNA (Dharmacon), SEQ ID NO:1, CCUUCAUGUUCAGAUGGUU (Accell modified siRNA, pattern not given here)
phosphorylation level of Mertk (p-Mertk) (Mertk): significantly increased
expression of Cbl-b after siRNA transduction (Cbl-b): significant decrease
total protein level of perform (perform): significantly increased
Granzyme B mRNA (granzyme B): significantly increased
